According to patent US20240342150A1 (priority 2021, published 2024):
pIC50: −log10 of the molar value.

Experiments:
[1] = system: SARS-CoV-2 variant D614G; assay type: cell-based
[2] = system: SARS-CoV-2 variants; test: microbe, parasite or virus in culture; assay type: cell-based

O=C(c1ccc(OCCN2CCCCC2)cc1)c1c(-c2ccc(O)cc2)sc2cc(O)ccc12 [Raloxifene, 1-[6-hydroxy-2-(4-hydroxyphenyl)benzo[b]thien-3-yl]-1-[4-[2-(1-piperidinyl)ethoxy]phenyl]methanone]
pIC50 [1]: 5.13
pIC50 ([2]; Severe acute respiratory syndrome coronavirus 2, Vero C1008, read-out: IC50 calculated on recovering of cell viability): 5.10 to 5.35
recovery of viability in infected Vero E6 cells ([2]; all the tested viral variants): able to recover viability
